Reference: patent publication US9855250B1, “Method to treat lung cancer” (Macau University of Science and Technology, priority 2016, dated 2018)

Legend:
H1975 cells [1] = assay: Apoptosis assay (Annexin-V FITC/PI flow cytometry) in H1975 cells; format: cell-based; conditions: 48 h treatment, vs control group
Procedure: H1975 cells (1×10^5 cells/well) were seeded in a 6-well plate for 24 h, and treated with the indicated concentrations of the compound F321-0719 for an additional 48 h at 37° C. After 48 h, the cells were washed by ice-cold 1×PBS (Phosphate-buffered saline) once and harvested by trypsination. Then cells were centrifuged, collected and re-suspended in ice-cold 1×PBS. After removing the supernatants, cell pellets were re-suspended in 100 μL 1× Annexin-binding buffer. The cells were then double-stained with Annexin-V FITC and PI (100 μg/mL) of 2 μL respectively for 15 min at room temperature in dark. After that, 300 μL 1× Annexin-binding buffer was added. Apoptotic cells were quantitatively counted by a BD Aria III Flow Cytometer (BD Biosciences, San Jose, Calif., USA).

[2] = test system: phosphorylation of AMPK and ACC; assay: Western blot analysis of AMPK and ACC phosphorylation in H1975 cells; format: cell-based; conditions: β-actin loading control
Procedure: After incubating H1975 cells with the compound F321-0719 for 24 h, H1975 cells were harvested and washed with cold 1×PBS. Then, cells were lysed with ice-cold RIPA lysis buffer with protease and phosphatase inhibitors added to extract the cell protein extraction. The supernatants were collected by centrifugation at 12,000 g, for 5 minutes. The quantitation of total protein extraction was measured by Bio-Rad DCTM protein assay kit (Bio-Rad, Philadelphia, Pa., USA). Then 30 μg of protein were loaded and electrophoretically separated on 10% SDS-PAGE gel and then transferred to Nitrocellulose (NC) membrane. Membranes were blocked with 5% non-fat milk and […] containing 0.1% Tween-20 (TBST) for 1 hour at room temperature. After 1 hour, membranes were incubated with primary antibodies (1:1000 dilution) against β-actin, total/phosphor-ACC, total-AMPK, and against phosphor-AMPK, at 4° C. with gently shaking overnight. Membranes were washed with TBST for 3 times (5 minutes/time), and incubated with secondary fluorescent antibody (1:10000 dilutions) for 1 hour at room temperature. Rewashing with TBST for 3 times (15 minutes/time), the stripes were visualized by LI-COR Odessy scanner (Belfast, Me., USA).

AMPK = AMPK enzyme activity assay (CycLex AMPK Kinase Assay Kit); format: biochemical; conditions: at 2.5 μM of the compound
Description: The CycLex AMPK Kinase Assay Kit (CycLex Co., Ltd., Nagano, Japan) was used to detect the activation of AMPK by the compound F321-0719. Compound C was used as AMPK inhibitor, and AMPK active enzyme was used as a positive control for phosphorylation.

H1975 cells [3] = assay: Cell cycle analysis (PI staining, flow cytometry) in H1975 cells; format: cell-based; conditions: 5 μM and 10 μM, 48 h
Procedure: H1975 cells were plated with 1.5×10^5 cells/well at a 6-well plate and cultured overnight for attachment. Cells were treated with the compound F321-0775 at 0, 2.5, 5, 10 μM for 48 h. After treatment, all cells were harvested by trypsinization, and collected by centrifugation. After removing all suspension, cells were washed by PBS. Cells pellets were re-suspended in 70% ethanol at 4° C. overnight. Cells were centrifuged at 1000 rpm for 5 min to remove all the ethanol. Each cell pellet was re-suspended in 500 μl PI staining solution at 37° C. for 30 min in dark. Then, they were washed in PBS twice. Cells were re-suspended in 300 μl 1× binding buffer and transferred to the flow cytometer (BD FACS Aria III).

[4] = MTT cytotoxicity assay on normal lung fibroblast CCD-19 Lu cells; format: cell-based; conditions: human, CCD-19 Lu normal lung fibroblast cells, CCD-19 Lu normal lung cells, MTT
Procedure: (§1) H1975 and CCD-19 Lu was purchased from ATCC (American type culture collection). H1975 was cultivated with RPMI 1640 medium supplement with 10% fetal bovine serum (Gibco, Big Cabin, Okla., ME, USA), 100 U/mL, penicillin and 100 μg/mL and streptomycin (Gibco, Big Cabin, Okla., ME, USA). CCD-19 Lu was cultivated with MEM medium supplemented with 10% FBS, 100 U/ml penicillin and 100 μg/ml streptomycin. All cells were cultivated at 37° C. in a humidified atmosphere of 5% CO2.
(§2) H1975 cells were seeded in a 96-well microplate with 3000 cells/well confluence, and put into the incubator overnight for cells adhesion. Different concentrations of the compound F321-0719 were added with Dimethyl sulfoxide (DMSO) as vehicle control. The microplates were incubated for further 72 h. Each dosage was repeated in triplicate. 10 μL of MTT (5 mg/mL) solution was added to each well. The plate was placed back into the incubator for 4 hours. After that, 100 μL of resolved solution (10% SDS and 0.1 mM HCL) was added to each well. Before dissolving the formazan crystals, the microplate was put back into the incubator for another 4 hours. The absorbance of the plate was measured at 570 nm with reference 650 nm by a microplate reader (Tecan, Morrisville, N.C., USA). Cell viability was calculated by percentages of the absorbance of the treatment group divided by the absorbance of untreated group. […]

CCD-19 Lu cells = assay: as above; format: cell-based; conditions: 72 h; even at concentration 20 times the IC50 on H1975 cells
Procedure: as §1, §2

H1975 cells [5] = assay: MTT cytotoxicity assay on H1975 NSCLC cells; format: cell-based; conditions: Homo sapiens, NCI-H1975, H1975, EGFR L858R/T790M, 72 h treatment
Procedure: as §1, §2

For `O=C(Nc1cccc(-c2noc(C3CCCC3)n2)c1)c1cc2ccccc2[nH]1` [F321-0719], which apoptosis level (H1975 cells [1]) is on record?
Its apoptosis level is “induced significant level of apoptosis in a concentration-dependent manner”.

What about the “phosphorylation of AMPK and ACC (western blot)” value [2] of the same compound?
The value was “activated phosphorylation of both AMPK and ACC in a dose-dependent manner”.

And the “AMPK enzyme activity (fold of AMPK kinase group)” value (AMPK)?
The value was “enhanced”.

What about the “G2 phase of cell cycle distribution” value (H1975 cells [3]) of the same compound?
Its value is “increased”.

And the IC50 at 72 h [4]?
Its IC50 at 72 h is greater than 100 µM.

What about the “cytotoxicity on CCD-19 Lu cells” value (CCD-19 Lu cells) of the same compound?
Its value is “no cytotoxicity”.

And the IC50 (H1975 cells [5])?
The IC50 was 3.46 ± 1.71 µM.
